PubChem BioAssay AID504741 (National Center for Advancing Translational Sciences (NCATS), 2011)

Tested on: PBS pH 7.4 stability, 37 C, LC-MS/MS, 48 h
Assay: Inhibitors of Bloom's syndrome helicase: PBS Stability Profiling Assay
Settings: at 2 µM; stronger effect = higher value
Source text: Survival of cells and the faithful propagation of the genome depend on elaborate mechanisms of detecting and repairing DNA damage. Treatment of advanced cancer relies on radiation therapy or chemotherapy, which kill cancer cells by causing extensive DNA damage. It is often found, that cancer cells develop resistance to therapy through enhanced activity of DNA repair functions; this has led to an increased interest in developing drugs that interfere with DNA repair, which could sensitize cancer cells to conventional therapy. Bloom syndrome helicase (BLM), is important in resolving abnormal DNA structures formed during replication or homologous recombination. Shutting down the expression of BLM leads to chromosomal instability and higher radiation sensitivity in cultured cells. After the completion of a qHTS campaign, secondary assays, and rounds of medicinal chemistry, a compound was identified to be further characterized through in vitro ADME assays. […]
2uM of compound is incubated in PBS buffer at pH 7; the reference compound is procaine. Compounds are incubated at 37 deg C for the pre-determined time periods and the when aliquots are removed. Samples are analyzed with LC-MS/MS.

percent remaining: 100%
Structure (SMILES): O=C(Nc1ccc(F)c(C(F)(F)F)c1)Nc1nnc(-c2ccncc2)s1
